Reference: the supplement of paper PMC11208160

Test: recombinant UMI read abundance after kanamycin selection (control-corrected) (log10(CPM+1)); higher = more efficient recombination; extreme values may be limits of the assay; sequences stand for … in AGTGCAGAGAAAATCGGCCAGTTTTCTCTGCCTGCAGTCCGCATGCCGTGGGACCCCTTGGGTTCTAACCTGTTGCCTAGATTTATGCAGCGGACTGCCTTTCTCCCAAAGTGATAAACCGG…AGGTTGGTTTCACT; site = the 11-nt donor
Procedure: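 Pooled E. coli donor-specificity screen for the IS621 bridge recombinase. Each library member carries a reprogrammed 11-nt donor and a full-length LE bridge RNA expressed in cis from the natural promoter, with a paired donor-binding loop (8-nt LDG + 4-nt RDG) and a target-binding loop fixed to T5. It is co-electroporated with a T5 target plasmid; recombinase is induced with 0.07 mM IPTG and recombinants are selected on kanamycin. UMIs are counted as CPM, averaged over two biological replicates and corrected by the unselected control. Molecule = full bridge RNA written as DNA, built from the T5 scaffold: LDG = donor specificity nt 1-8, RDG = reverse complement of nt 8-11.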
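Further: IS621 bridge recombinase in Escherichia coli cells against a fixed T5 target plasmid.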

Row | Sequence | recombinant UMI read abundance (log10)
1 | AATCTCACATGGACCGGTTTTCCCGGTAATCCGTATTTGGA (site AATCTCACTTC) | 0.341
2 | AATCTGGCATGGACCGGTTTTCCCGGTAATCCGTATTTGTA (site AATCTGGCTTA) | 0.472
3 | AATGAGACATGGACCGGTTTTCCCGGTAATCCGTATTTGGT (site AATGAGACTAC) | 1.58
4 | AATGAGACATGGACCGGTTTTCCCGGTAATCCGTATTTGGT (site ACTGAGACTAC) | 0.724
5 | AATGAGACATGGACCGGTTTTCCCGGTAATCCGTATTTGGT (site AGTGAGACTAC) | 1.41
6 | AATGAGACATGGACCGGTTTTCCCGGTAATCCGTATTTGGT (site ATTGAGACTAC) | 0.678
7 | AATGATGCATGGACCGGTTTTCCCGGTAATCCGTATTTGGA (site AATAATGCTTC) | 1.08
8 | AATGATGCATGGACCGGTTTTCCCGGTAATCCGTATTTGGA (site AATCATGCTTC) | 1.01
9 | AATGATGCATGGACCGGTTTTCCCGGTAATCCGTATTTGGA (site AATGATGCTTC) | 1.06
10 | AATGATGCATGGACCGGTTTTCCCGGTAATCCGTATTTGGA (site AATTATGCTTC) | 0.561
11 | AATGCAACATGGACCGGTTTTCCCGGTAATCCGTATTTGCT (site AATGAAACTAG) | 0
12 | AATGCAACATGGACCGGTTTTCCCGGTAATCCGTATTTGCT (site AATGCAACTAG) | 0.00461
13 | AATGCAACATGGACCGGTTTTCCCGGTAATCCGTATTTGCT (site AATGGAACTAG) | 0
14 | AATGCAACATGGACCGGTTTTCCCGGTAATCCGTATTTGCT (site AATGTAACTAG) | 0
15 | AATGCAGCATGGACCGGTTTTCCCGGTAATCCGTATTTGGG (site AATGCAGCTCC) | 0.00829
16 | AATGCGTCATGGACCGGTTTTCCCGGTAATCCGTATTTGAC (site AATGAGTCTGT) | 0
17 | AATGCGTCATGGACCGGTTTTCCCGGTAATCCGTATTTGAC (site AATGCGTCTGT) | 2.03
18 | AATGCGTCATGGACCGGTTTTCCCGGTAATCCGTATTTGAC (site AATGGGTCTGT) | 0
19 | AATGCGTCATGGACCGGTTTTCCCGGTAATCCGTATTTGAC (site AATGTGTCTGT) | 0.269
20 | AATGGGTCATGGACCGGTTTTCCCGGTAATCCGTATTTGAC (site AATGAGTCTGT) | 0.146
21 | AATGGGTCATGGACCGGTTTTCCCGGTAATCCGTATTTGAC (site AATGCGTCTGT) | 0.826
22 | AATGGGTCATGGACCGGTTTTCCCGGTAATCCGTATTTGAC (site AATGGGTCTGT) | 2.68
23 | AATGGGTCATGGACCGGTTTTCCCGGTAATCCGTATTTGAC (site AATGTGTCTGT) | 0
24 | AATGGTGCATGGACCGGTTTTCCCGGTAATCCGTATTTGGT (site AATGGTGCTAC) | 1.04

Row | Sequence | recombinant UMI read abundance (log10)
25 | AATGTAACATGGACCGGTTTTCCCGGTAATCCGTATTTGCG (site AATGTAACTAG) | 0
26 | AATGTAACATGGACCGGTTTTCCCGGTAATCCGTATTTGCG (site AATGTAACTCG) | 1.48
27 | AATGTAACATGGACCGGTTTTCCCGGTAATCCGTATTTGCG (site AATGTAACTGG) | 0
28 | AATGTAACATGGACCGGTTTTCCCGGTAATCCGTATTTGCG (site AATGTAACTTG) | 0.00267
29 | AATGTAACATGGACCGGTTTTCCCGGTAATCCGTATTTGTT (site AATGTAACTAA) | 0.321
30 | AATGTAACATGGACCGGTTTTCCCGGTAATCCGTATTTGTT (site AATGTAACTAC) | 0.00716
31 | AATGTAACATGGACCGGTTTTCCCGGTAATCCGTATTTGTT (site AATGTAACTAG) | 0.466
32 | AATGTAACATGGACCGGTTTTCCCGGTAATCCGTATTTGTT (site AATGTAACTAT) | 0.0338
33 | AATGTACCATGGACCGGTTTTCCCGGTAATCCGTATTTGCT (site AATGTAACTAG) | 0
34 | AATGTACCATGGACCGGTTTTCCCGGTAATCCGTATTTGCT (site AATGTACCTAG) | 0
35 | AATGTACCATGGACCGGTTTTCCCGGTAATCCGTATTTGCT (site AATGTAGCTAG) | 0.00499
36 | AATGTACCATGGACCGGTTTTCCCGGTAATCCGTATTTGCT (site AATGTATCTAG) | 0.926
37 | AATGTGTCATGGACCGGTTTTCCCGGTAATCCGTATTTGAG (site AATGTGTCTAT) | 1.43
38 | AATGTGTCATGGACCGGTTTTCCCGGTAATCCGTATTTGAG (site AATGTGTCTCT) | 1.82
39 | AATGTGTCATGGACCGGTTTTCCCGGTAATCCGTATTTGAG (site AATGTGTCTGT) | 0.801
40 | AATGTGTCATGGACCGGTTTTCCCGGTAATCCGTATTTGAG (site AATGTGTCTTT) | 0.832
41 | AATGTGTCATGGACCGGTTTTCCCGGTAATCCGTATTTGAT (site AATGTGTCTAT) | 1.66
42 | AATGTGTCATGGACCGGTTTTCCCGGTAATCCGTATTTGAT (site AATGTGTCTCT) | 0.003
43 | AATGTGTCATGGACCGGTTTTCCCGGTAATCCGTATTTGAT (site AATGTGTCTGT) | 0
44 | AATGTGTCATGGACCGGTTTTCCCGGTAATCCGTATTTGAT (site AATGTGTCTTT) | 0.0089
45 | AATTAGCCATGGACCGGTTTTCCCGGTAATCCGTATTTGAG (site AATTAGCCTCT) | 0.017
46 | AATTATCCATGGACCGGTTTTCCCGGTAATCCGTATTTGGA (site AATTATACTTC) | 0.126
47 | AATTATCCATGGACCGGTTTTCCCGGTAATCCGTATTTGGA (site AATTATCCTTC) | 0
48 | AATTATCCATGGACCGGTTTTCCCGGTAATCCGTATTTGGA (site AATTATGCTTC) | 0.0173

Row | Sequence | recombinant UMI read abundance (log10)
49 | AATTATCCATGGACCGGTTTTCCCGGTAATCCGTATTTGGA (site AATTATTCTTC) | 0.322
50 | AATTATGCATGGACCGGTTTTCCCGGTAATCCGTATTTGGA (site AAATATGCTTC) | 1.34
51 | AATTATGCATGGACCGGTTTTCCCGGTAATCCGTATTTGGA (site AACTATGCTTC) | 1.02
52 | AATTATGCATGGACCGGTTTTCCCGGTAATCCGTATTTGGA (site AAGTATGCTTC) | 1.19
53 | AATTATGCATGGACCGGTTTTCCCGGTAATCCGTATTTGGA (site AATAATGCTTC) | 0.535
54 | AATTATGCATGGACCGGTTTTCCCGGTAATCCGTATTTGGA (site AATCATGCTTC) | 0.445
55 | AATTATGCATGGACCGGTTTTCCCGGTAATCCGTATTTGGA (site AATGATGCTTC) | 0.482
56 | AATTATGCATGGACCGGTTTTCCCGGTAATCCGTATTTGGA (site AATTAAGCTTC) | 0.54
57 | AATTATGCATGGACCGGTTTTCCCGGTAATCCGTATTTGGA (site AATTACGCTTC) | 0.439
58 | AATTATGCATGGACCGGTTTTCCCGGTAATCCGTATTTGGA (site AATTAGGCTTC) | 0.38
59 | AATTATGCATGGACCGGTTTTCCCGGTAATCCGTATTTGGA (site AATTATACTTC) | 0.816
60 | AATTATGCATGGACCGGTTTTCCCGGTAATCCGTATTTGGA (site AATTATCCTTC) | 0.447
61 | AATTATGCATGGACCGGTTTTCCCGGTAATCCGTATTTGGA (site AATTATGCTAC) | 0.0199
62 | AATTATGCATGGACCGGTTTTCCCGGTAATCCGTATTTGGA (site AATTATGCTCC) | 0.0288
63 | AATTATGCATGGACCGGTTTTCCCGGTAATCCGTATTTGGA (site AATTATGCTGC) | 0
64 | AATTATGCATGGACCGGTTTTCCCGGTAATCCGTATTTGGA (site AATTATGCTTA) | 0.00642
65 | AATTATGCATGGACCGGTTTTCCCGGTAATCCGTATTTGGA (site AATTATGCTTC) | 0.373
66 | AATTATGCATGGACCGGTTTTCCCGGTAATCCGTATTTGGA (site AATTATGCTTG) | 0
67 | AATTATGCATGGACCGGTTTTCCCGGTAATCCGTATTTGGA (site AATTATGCTTT) | 0.359
68 | AATTATGCATGGACCGGTTTTCCCGGTAATCCGTATTTGGA (site AATTATTCTTC) | 0.941
69 | AATTATGCATGGACCGGTTTTCCCGGTAATCCGTATTTGGA (site AATTCTGCTTC) | 0.313
70 | AATTATGCATGGACCGGTTTTCCCGGTAATCCGTATTTGGA (site AATTGTGCTTC) | 0.266
71 | AATTATGCATGGACCGGTTTTCCCGGTAATCCGTATTTGGA (site AATTTTGCTTC) | 0.00678
72 | AATTATGCATGGACCGGTTTTCCCGGTAATCCGTATTTGGA (site ACTTATGCTTC) | 0.937
